± gives the expanded uncertainty stated by the source.

The text below walks through data of the NIST ThermoML archive (doi:10.1016/j.jct.2011.12.005).

For series [1] the following is noted: for Normal melting temperature: Crystal, DTA.
A short description of series [2]: Molar enthalpy of transition or fusion.
[3] abbreviates: Crystal 2, Differential scanning calorimeter.

With `COc1cc(C=CC(=O)O)ccc1O` [4-hydroxy-3-methoxycinnamic acid], in series [1], the Normal melting temperature is 171.8 ± 0.9 °C. Further, the “Molar enthalpy of transition or fusion” value in series [2] (Crystal, DSC) was found to be 7.62 ± 0.215 kcal/mol.
Regarding `Cn1c(=O)c2c(ncn2C)n(C)c1=O` [caffeine], the Triple point temperature in series [1] (setting [3]) was 405.8 K. Besides, in series [1], the Normal melting temperature was found to be 232.2 ± 0.5 °C. In addition, the “Molar enthalpy of transition or fusion” value turned out to be 0.621 kcal/mol in series [2] (setting [3]) and 4.28 ± 0.143 kcal/mol in series [2] (Crystal, DSC).
As to `Cc1ccc(C(C)C)c(O)c1` [3-methyl-6-isopropylphenol], the Normal melting temperature in series [1] was determined as 49 ± 0.4 °C. Further, in series [2] (Crystal, DSC), the “Molar enthalpy of transition or fusion” value was found to be 4.16 ± 0.12 kcal/mol.
For `COc1cc(C(=O)O)ccc1O` [4-hydroxy-3-methoxybenzoic acid] the same measures were 207.6 ± 0.5 °C and 6.96 ± 0.191 kcal/mol.
